Laboratory results taken from patent US10221161B2, “Inhibitors of plasma kallikrein” (Kalvista Pharmaceuticals Limited, priority 2013, dated 2019).

What was measured:
[1] = target: Human plasma kallikrein (Homo sapiens (Human), UniProt P03952); assay: Determination of the IC50 for plasma kallikrein (fluorogenic substrate H-DPro-Phe-Arg-AFC); assay type: biochemical; details: 37° C., read-out: IC50 (human PKal)
Procedure: Determination of the IC50 Plasma Kallikrein Plasma kallikrein inhibitory activity in vitro was determined using standard published methods (see e.g. Johansen et al., Int. J. Tiss. […] Shori et al., Biochem. Pharmacol., 1992, 43, 1209; Stürzebecher et al., Biol. Chem. Hoppe-Seyler, 1992, 373, 1025). Human plasma kallikrein (Protogen) was incubated at 37° C. with the fluorogenic substrate […] and various concentrations of the test compound.

[2] = target: Human KLK1 (Homo sapiens (Human), UniProt P06870); assay: Determination of the IC50 for KLK1 (fluorogenic substrate H-DVal-Leu-Arg-AFC); assay type: biochemical; details: human KLK1, 37° C.
Human KLK1, sequence (P06870 25-262): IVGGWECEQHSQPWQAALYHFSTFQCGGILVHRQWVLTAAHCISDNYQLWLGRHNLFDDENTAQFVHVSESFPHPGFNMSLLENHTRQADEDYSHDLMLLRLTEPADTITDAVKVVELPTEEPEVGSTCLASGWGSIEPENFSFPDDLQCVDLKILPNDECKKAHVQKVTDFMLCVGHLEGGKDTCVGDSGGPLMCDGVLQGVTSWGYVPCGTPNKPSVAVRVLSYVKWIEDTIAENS
Procedure: Selected compounds were further screened for inhibitory activity against the related enzyme KLK1. The ability of the compounds of formula (I) to inhibit KLK1 may be determined using the following biological assay:
Determination of the IC50 for KLK1
KLK1 inhibitory activity in vitro was determined using standard published methods (see e.g. Johansen et al., Int. J. Tiss. Reac. 1986, 8, 185; Shori et al., Biochem. Pharmacol., 1992, 43, 1209; Stürzebecher et al., Biol. Chem. Hoppe-Seyler, 1992, 373, 1025). Human KLK1 (Callbiochem) was incubated at 37° C. with the fluorogenic substrate H-DVal-Leu-Arg-AFC and various concentrations of the test compound. Residual enzyme activity (initial rate of reaction) was determined by measuring the change in optical absorbance at 410 nm and the IC50 value for the test compound was determined.

Human plasma kallikrein, sequence (P03952 391-638 limits assumed): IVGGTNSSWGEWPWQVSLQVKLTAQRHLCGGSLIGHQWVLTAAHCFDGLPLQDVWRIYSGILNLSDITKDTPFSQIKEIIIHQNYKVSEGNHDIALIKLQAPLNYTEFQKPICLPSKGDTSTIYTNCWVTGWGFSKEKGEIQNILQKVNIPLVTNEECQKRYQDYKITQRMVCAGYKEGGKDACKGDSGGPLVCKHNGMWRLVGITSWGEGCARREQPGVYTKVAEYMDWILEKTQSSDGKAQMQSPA
Human plasma kallikrein, sequence (P03952 20-390 partner limits assumed): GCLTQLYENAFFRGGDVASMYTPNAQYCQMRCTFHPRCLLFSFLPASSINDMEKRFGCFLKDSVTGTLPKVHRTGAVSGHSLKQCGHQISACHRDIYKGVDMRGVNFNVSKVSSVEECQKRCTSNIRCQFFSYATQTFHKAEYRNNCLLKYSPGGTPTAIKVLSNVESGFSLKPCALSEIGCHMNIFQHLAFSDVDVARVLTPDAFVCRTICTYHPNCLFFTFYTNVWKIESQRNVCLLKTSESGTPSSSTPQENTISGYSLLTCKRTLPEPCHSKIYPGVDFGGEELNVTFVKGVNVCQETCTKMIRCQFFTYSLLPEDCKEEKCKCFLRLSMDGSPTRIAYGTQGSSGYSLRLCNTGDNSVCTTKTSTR

| IC50 [1] [µM] | IC50 [2] [µM] | SMILES |
| --- | --- | --- |
| 0.365 | > 40 | Cc1cnn(Cc2ccc(Cc3cncc(C(=O)NCc4ccc(CN)c(F)c4)c3)cc2)c1 [Example 96, N-{[4-(Aminomethyl)-3-fluorophenyl]methyl}-5-({4-[(4-methylpyrazol-1-yl)methyl]phenyl}methyl)pyridine-3-carboxamide] |
| 0.104 | 4.84 | Nc1nccc2cc(CNC(=O)c3cncc(Cc4ccnc(N5CCCC5CO)c4)c3)ccc12 (stereo not shown) [Example 89, N-[(1-Aminoisoquinolin-6-yl)methyl]-5-({2-[2-(hydroxymethyl)pyrrolidin-1-yl]pyridin-4-yl}methyl)pyridine-3-carboxamide] |
| 1.55 | 3.88 | CN(C)[C@@H]1CCN(c2cc(Cc3cncc(C(=O)NCc4ccc5c(N)nccc5c4)c3)ccn2)C1 (stereo in doubt) [Example 90, N-[(1-Aminoisoquinolin-6-yl)methyl]-5-({2-[3-(dimethylamino)pyrrolidin-1-yl]pyridin-4-yl}methyl)pyridine-3-carboxamide] |
| 0.302 | 2.85 | Nc1nccc2cc(CNC(=O)c3cncc(Cc4cccc(-n5cccn5)c4)c3)ccc12 [Example 30, N-[(1-Aminoisoquinolin-6-yl)methyl]-5-{[3-(pyrazol-1-yl)phenyl]methyl}pyridine-3-carboxamide] |
| 0.194 | 3.02 | Cc1ccc2cc(Cc3cncc(C(=O)NCc4ccc5c(N)nccc5c4)n3)ccc2n1 [Example 10, N-[(1-Aminoisoquinolin-6-yl)methyl]-6-[(2-methylquinolin-6-yl)methyl]pyrazine-2-carboxamide] |
| 1.71 | 2.11 | CN(C)[C@H]1CCN(c2cc(Cc3cncc(C(=O)NCc4ccc5c(N)nccc5c4)c3)ccn2)C1 (stereo in doubt) [Example 91, N-[(1-Aminoisoquinolin-6-yl)methyl]-5-({2-[3-(dimethylamino)pyrrolidin-1-yl]pyridin-4-yl}methyl)pyridine-3-carboxamide] |
| 0.0678 | 4 | Nc1nccc2cc(CNC(=O)c3cncc(Cc4ccnc(N5CCC(F)C5)c4)c3)ccc12 (stereo not shown) [Example 82, N-[(1-Aminoisoquinolin-6-yl)methyl]-5-{[2-(3-fluoropyrrolidin-1-yl)pyridin-4-yl]methyl}pyridine-3-carboxamide] |
| 0.683 | 10.7 | CC1(C)CCCN1c1cc(Cc2cncc(C(=O)NCc3ccc4c(N)nccc4c3)c2)ccn1 [Example 84, N-[(1-Aminoisoquinolin-6-yl)methyl]-5-{[2-(2,2-dimethylpyrrolidin-1-yl)pyridin-4-yl]methyl}pyridine-3-carboxamide] |
| 0.237 | 9.53 | Nc1nccc2cc(CNC(=O)c3cncc(Cc4cccc(Cn5cccn5)c4)c3)ccc12 [Example 32, N-[(1-Aminoisoquinolin-6-yl)methyl]-5-{[3-(pyrazol-1-ylmethyl)phenyl]methyl}pyridine-3-carboxamide] |
| 0.0275 | 1.12 | Cc1ccc2cc(Cc3cncc(C(=O)NCc4ccc5c(N)nccc5c4)c3)ccc2n1 [Example 17, N-[(1-Aminoisoquinolin-6-yl)methyl]-5-[(2-methylquinolin-6-yl)methyl]pyridine-3-carboxamide] |
| 1.71 | 4 | Nc1nccc2cc(CNC(=O)c3cncc(Cc4csc(-c5ccccc5)n4)c3)ccc12 [Example 24, N-[(1-Aminoisoquinolin-6-yl)methyl]-5-[(2-phenyl-1,3-thiazol-4-yl)methyl]pyridine-3-carboxamide] |
| 0.234 | 9.85 | COC1CCN(c2cc(Cc3cncc(C(=O)NCc4ccc5c(N)nccc5c4)c3)ccn2)C1 (stereo not shown) [Example 88, N-[(1-Aminoisoquinolin-6-yl)methyl]-5-{[2-(3-methoxypyrrolidin-1-yl)pyridin-4-yl]methyl}pyridine-3-carboxamide] |
| 0.106 | 2.87 | CC1CCN(c2cc(Cc3cncc(C(=O)NCc4ccc5c(N)nccc5c4)c3)ccn2)C1 (stereo not shown) [Example 83, N-[(1-Aminoisoquinolin-6-yl)methyl]-5-{[2-(3-methylpyrrolidin-1-yl)pyridin-4-yl]methyl}pyridine-3-carboxamide] |
| 0.119 | 28.2 | Cc1cnn(Cc2ccc(Cc3cc(C(=O)NCc4ccc5c(N)nccc5c4)ncn3)cc2)c1 [Example 8, N-[(1-Aminoisoquinolin-6-yl)methyl]-6-({4-[(4-methylpyrazol-1-yl)methyl]phenyl}methyl)pyrimidine-4-carboxamide] |
| 0.674 | 9.57 | Nc1nccc2cc(CNC(=O)c3cncc(Cc4ccnc(N5CCC(O)C5)c4)c3)ccc12 (stereo not shown) [Example 81, N-[(1-Aminoisoquinolin-6-yl)methyl]-5-{[2-(3-hydroxypyrrolidin-1-yl)pyridin-4-yl]methyl}pyridine-3-carboxamide] |
| 8.11 | > 10 | Nc1nccc2cc(CNC(=O)c3cncc(CN4CCN(CCc5ccccc5)CC4)c3)ccc12 [Example 51, N-[(1-Aminoisoquinolin-6-yl)methyl]-5-{[4-(2-phenylethyl)piperazin-1-yl]methyl}pyridine-3-carboxamide] |
| 0.164 | 6.93 | Nc1nccc2cc(CNC(=O)c3cncc(Cc4ccnc(N5CCCCC5)c4)c3)ccc12 [Example 78, N-[(1-Aminoisoquinolin-6-yl)methyl]-5-{[2-(piperidin-1-yl)pyridin-4-yl]methyl}pyridine-3-carboxamide] |
| 0.131 | > 10 | CC1(C)CCCN1c1ccc(Cc2cncc(C(=O)NCc3ccc4c(N)nccc4c3)c2)cn1 [Example 65, N-[(1-Aminoisoquinolin-6-yl)methyl]-5-{[6-(2,2-dimethylpyrrolidin-1-yl)pyridin-3-yl]methyl}pyridine-3-carboxamide] |

| SMILES | IC50 [1] [µM] | IC50 [2] [µM] |
| --- | --- | --- |
| Cc1ccc2cc(Cc3cncc(C(=O)NCc4c(C)nc5[nH]ccc(C)c4-5)c3)ccc2n1 [Example 13, N-({2,4-Dimethyl-7H-pyrrolo[2,3-b]pyridin-3-yl}methyl)-5-[(2-methylquinolin-6-yl)methyl]pyridine-3-carboxamide] | 0.923 | 0.236 |
| Cn1cc(CN2CCN(Cc3cncc(C(=O)NCc4ccc5c(N)nccc5c4)c3)CC2)cn1 [Example 47, N-[(1-Aminoisoquinolin-6-yl)methyl]-5-({4-[(1-methylpyrazol-4-yl)methyl]piperazin-1-yl}methyl)pyridine-3-carboxamide] | 40 | > 40 |
| Nc1nccc2cc(CNC(=O)c3cncc(Cc4ccc(N5CCCC5=O)nc4)c3)ccc12 [Example 53, N-[(1-Aminoisoquinolin-6-yl)methyl]-5-{[6-(2-oxopyrrolidin-1-yl)pyridin-3-yl]methyl}pyridine-3-carboxamide] | 0.2 | 3.86 |
| CCN(CC)c1ccc(Cc2cncc(C(=O)NCc3ccc4c(N)nccc4c3)c2)cn1 [Example 66, N-[(1-Aminoisoquinolin-6-yl)methyl]-5-{[6-(diethylamino)pyridin-3-yl]methyl}pyridine-3-carboxamide] | 0.0527 | 5.85 |
| Nc1nccc2cc(CNC(=O)c3cncc(CN4CCN(Cc5ccccc5)CC4)c3)ccc12 [Example 41, N-[(1-Aminoisoquinolin-6-yl)methyl]-5-[(4-benzylpiperazin-1-yl)methyl]pyridine-3-carboxamide] | 2.75 | 37 |
